Reference: patent publication US20220132856A1, “PHOTOSENSITIZER AND CHELATING AGENT COMBINATIONS FOR USE AS INSECTICIDES” (SUNCOR ENERGY INC., priority 2019, published 2022)

Legend:
[1] = system: Common Poinsettia plants (Euphorbia pulcherrima) cv Prestige Red; assay: Phytotoxicity on poinsettia plants (Example 4)
[2] = system: Silverleaf whitefly (Bemesia argentifolii); assay: Silverleaf whitefly suppression on sprayed poinsettia (Example 4); assay type: in vivo; details: whitefly nymphs, two sprays 7 days apart, sunlight 2 days; for Insects Suppression, % 6 DAT2: 6 days after second application; for Insects Suppression, % 13 DAT2: 13 days after second application
Protocol: The experiments were conducted in a greenhouse. Whiteflies were maintained on Common Poinsettia plants (Euphorbia pulcherrima) cv Prestige Red in the Greenhouse. Host plants and experimental plants were not initially exposed to pesticide treatments.
Experimental poinsettia plants were grown in 6.5″ plastic pots filled with Sunshine #4 soil mix. The plants were irrigated every day and soluble fertilizer 20-20-20 @ 200 ppm was applied twice weekly.
The poinsettia plants were placed into a whitefly infected greenhouse for 30 days to obtain uniform colonies of insect nymphs on the plants. After 30 days, the infested plants were moved from the infested greenhouse and placed outside of the greenhouse for a two-day adaptation period prior to the treatment. Whitefly nymph population was counted one day prior to the treatment using the discs method.
(§1) Two 5.47 cm^2 discs were taken from each replicate, insects were observed under a stereoscope and counted. The discs were taken from the randomly collected leaves from the mid to upper strata areas of the plant as this area is preferred by insects for eggs laying and nymphs development. Upon initiation of the experiment the whitefly population was considered uniform.
Treatments were applied two times with a 7-day interval using CO2 backpack sprayer with a single hollow cone nozzle (TVXK-3) at 40 psi. Plants were thoroughly sprayed with tested treatments and immediately exposed to direct sunlight for 2 days before returning to the greenhouse setting. For each treatment, six single plant replicates were used. After 2 days of outside sun exposure, all plants were carefully moved into the separate greenhouse and placed on a wire mesh bench in a Completely Randomized design. A second application of treatments was made 7 days after the first application using the same methodology.
The number of whitefly nymphs per disc was counted at 6 and 13 days after second foliar application (6 DAT2, 13DAT2). The Plants were evaluated for phytotoxicity at 6 days after each foliar spray.

[3] = system: Citrus Mealybug (Planococcus citri Risso); assay: Mealybug exposure to direct spray in petri dishes, instar mortality; assay type: in vivo; details: mealybug instars sprayed in petri dishes, simulated daylight (LED) 14 h
Protocol: (§2) Colonies of Citrus Mealybug (Planococcus citri Risso) were maintained on Coleus plants (Solenostemon Scutellarioides L. Codd) grown in a Greenhouse under 24±4° C. and 16 h light/8 h dark photoperiod. […] Host plants were not initially exposed to pesticide treatments.
(§3) Small crowns of coleus shoots (4-6 cm in height, 6-7 leaves) were excised from the mature healthy plant and inserted into water-filled 50 ml plastic vials.
(§4) Homogenous mealybug instars-crawlers were carefully collected from the infested coleus plants using tip-moist soft fine paintbrush into a petri dish lined with filter paper. A total of 20 mealybug instars were released on upper leaves of each coleus shoot. […] Rack was located in the Plant Growth Room at 24-25° C.
(§5) Each treatment was replicated 4 times. Water treatment was used as a Control.
(§6) Insects were examined using 10×magnifying glass. […] The number of live and dead insects were recorded. Insect mortality was assessed for up to 96 hours after treatment (HAT-hours after treatment).
(§7) Percentage of citrus mealybug mortality for each treatment was calculated and data was subjected to One-way ANOVA combine with All Pairwise Multiple Comparison Procedures using the Fisher protected LSD mean separation test, […].
Mealybug instars were transferred into plastic containers lined with filter paper, sprayed and immediately exposed to light for […]. […]

[4] = system: potato aphids (Macrosiphum euphorbiae); details: for Mean Insects Mortality, % 24 HAT / Mean Insects Mortality, % 48 HAT: LED light exposure 14 h after treatment
Protocol: Potato aphids (Macrosiphum euphorbiae) were obtained from a colony maintained on Bell pepper (Capsicum annuum L.) plants grown in 1-gal plastic pots containing soil mix for greenhouse use (Sunshine LC1, Sun Gro Horticulture Canada Ltd.). Plants were watered as needed and fertilized twice a week with 20-20-20 water soluble fertilizers. Host plants were not exposed to pesticide treatments.
Pepper leaves infested with aphid nymphs were collected and each leaf was placed in 50 ml vials filled with water. Vials were covered with the lead with a small opening to prevent insects from drowning. Vials with host plant leaf infested with insects were placed in 500 ml transparent plastic containers and covered with transparent leads.
All treatments were applied as a fine spray using a hand-held plastic spray bottle. Each treatment was replicated 4 times. Water treatment was used as a Control.
After 14 h of exposure to LED light or dark insects were kept at a regular 14 h/10 h (light/night) photoperiod. Containers with insects were arranged in a randomized fashion. The experimental rack was placed in the Plant Growth Room at 24-25° C.
The number of live aphids on each leaf (replicate/container) was counted before application of the treatments, as well as 24 h and 48 h after the treatments. The insects were examined using 10× magnifying glass. Aphids were considered dead if no movement was detected after mechanical stimulation with the paintbrush.
Percentage of mortality was calculated by using the numbers of live and dead aphids. Percentage of mortality was rated as zero, when number of insects in the sample increased during the experiment (aphids females gave birth to nymphs).

[5] = system: Silverleaf whitefly (Bemesia argentifolii); assay: Silverleaf whitefly live nymph count on sprayed poinsettia (Example 3); assay type: in vivo; details: for Mean number of whitefly live nymphs/sample −1 DAA: 1 day before treatments application (baseline); for Mean number of whitefly live nymphs/sample 6 DAA: 6 days after first application, sunlight 8 h after spray; for Mean number of whitefly live nymphs/sample 13 DAA: 13 days after first application (6 days after application 2); for Mean number of whitefly live nymphs/sample 20 DAA: 20 days after first application (13 days after application 2); for Mean number of whitefly live nymphs/sample 28 DAA: 28 days after application 1 (21 days after application 2)
Protocol: The experiments were conducted in a greenhouse. Whiteflies were maintained on Common Poinsettia plants (Euphorbia pulcherrima) in the Greenhouse. Host plants and experimental plants were not initially exposed to pesticide treatments.
Experimental poinsettia plants were grown from the plug stage in 6.5″ plastic pots filled with Sunshine #4 soil mix. The plants were irrigated every day and soluble fertilizer 20-20-20 @ 200 ppm was applied twice weekly.
The poinsettia plants were placed for 7 days to whitefly infected the greenhouse to obtain uniform colonies of insect nymphs on introduced plants. After 7 days, the plants were removed from the infested greenhouse and whitefly nymph population was counted using the discs method.
as §1, with “each plant” for “each”, “taken” for “taken from the randomly collected leaves”
Treatments were applied with CO2 backpack sprayer with a single solid cone nozzle (TG1) at 60 psi. Plants were thoroughly sprayed with tested treatments and immediately exposed to direct sunlight for 8 h before returning to the greenhouse setting. For each treatment, five single plant replicates were used. After 8 h of outside sun exposure all plants were carefully moved into the greenhouse and placed on a wire mesh bench in RCB design. A second application of treatments was made 7 days after the first application using the same methodology.
The number of whitefly nymphs per disc was counted at 1 day before treatments application (DAA), 6 days after first application (DAA), 13 days after first application (or 6 days after application 2), 20 days after first application 1 (or 13 days after application 2) and 28 days after application 1 (or 21 days after application 2).

[6] = system: Common Poinsettia plants (Euphorbia pulcherrima); details: 0=healthy plants, 10=dead plants
Protocol: Poinsettia plants were evaluated for phytotoxicity after treatments. Phytotoxicity on the plants was rated 0 to 10, where 0=healthy plants, 10=dead plants at 6 DAA and 13DAA. Ratings were based on visual observations for symptoms such as chlorosis, necrosis, deformation, stunting and compared to plants in the untreated control.

[7] = system: Citrus Mealybug (Planococcus citri Risso); assay: Mealybug exposure to direct spray on plants (coleus shoots), instar mortality; assay type: in vivo
Protocol: as §2, §3, §4, §5, §6, §7
Mealybug were introduced to coleus shoots. Two hours later, the shoots were sprayed with photosensitizer and placed under the light for 14 hours.

[8] = system: German cockroach (Blatella germanica); assay: German cockroach nymph suppression, treatment fed in 1% sucrose solution, light or dark; assay type: in vivo; details: cockroach nymphs
Protocol: A small German cockroach colony (Blatella germanica) was purchased from Benzon Research (USA). Cockroach mix sex nymphs were used as model insect.
The experiments were conducted in a lab. Insectary at 25° C. in light and dark conditions. Light condition: 12 h light/12 h dark photoperiod. During the light period insects were exposed to Spectrum Physio Spec Indoor LED light 250 μmol m^−2 s^−1 Dark condition: insects were kept in complete dark. Insects were fed prior to treatments with 1% sucrose solution and were anesthetizing in the fridge for a few minutes before handling.
Ten homogenous cockroach nymphs (3-4 instar) were carefully transferred into each half pint clear glass jar abraded internally to provide surface for climbing and lined with 9 cm in diameter filter paper. The treatments were administered to cockroaches in a 1% sucrose solution positioned in 10 ml glass vials abraded externally for easy climbing insects and placed in jars. Fresh treatment solutions were replaced each 3 days. Glass jars were covered with mesh. […] Completely randomized design with 4 replications per treatment was used.
Treated insects were kept under specific conditions for 14 days and mortality count was performed at 7 and 14 days after exposure to treatments.

C=CC1=C(C)c2cc3[nH]c(cc4nc(cc5[nH]c(cc1n2)c(C)c5CCC(=O)[O-])C(CCC(=O)[O-])=C4C)c(C)c3C=C.[Na+].[Na+] [0.1% PPIX, Protoporphyrin sodium salts]
Phytotoxicity % 13 DAT2 [1]: 0%
Insects Suppression, % 6 DAT2 [2]: 41%
Insects Suppression, % 13 DAT2 [2]: 28%

O=S(=O)([O-])c1ccc(-c2c3nc(c(-c4ccc(S(=O)(=O)[O-])cc4)c4ccc([nH]4)c(-c4ccc(S(=O)(=O)O)cc4)c4nc(c(-c5ccc(S(=O)(=O)[O-])cc5)c5ccc2[nH]5)C=C4)C=C3)cc1.[Na+].[Na+].[Na+] [0.1% TPPS-Na3, meso-tetra-(4-sulfonatophenyl) porphyrin trisodium salts]
Phytotoxicity % 13 DAT2 [1]: 0%
Insects Suppression, % 6 DAT2 [2]: 37%
Insects Suppression, % 13 DAT2 [2]: 52%

Mg-Chlorophyllin [0.2 wt % MgChln]
Insect Mortality, % 24 HAT ([3]; 24 hours after treatment): 32.8%
Insect Mortality, % 96 HAT ([3]; 96 hours after treatment): 46.3%
Mean Insects Mortality, % 24 HAT ([4]; 24 HAT): 24%
Mean Insects Mortality, % 48 HAT ([4]; 48 HAT): 24%
Mean Insect Mortality, % 24 HAT ([4]; no light exposure (dark), dark exposure 24 h, 24 HAT): 5%
Mean Insect Mortality, % 48 HAT ([4]; no light exposure (dark), dark exposure 24 h, 48 HAT): 17%
Mean number of whitefly live nymphs/sample −1 DAA [5]: 111.4 nymphs/sample
Mean number of whitefly live nymphs/sample 6 DAA [5]: 68 nymphs/sample
Mean number of whitefly live nymphs/sample 13 DAA [5]: 56.6 nymphs/sample
Mean number of whitefly live nymphs/sample 20 DAA [5]: 74.8 nymphs/sample
Mean number of whitefly live nymphs/sample 28 DAA [5]: 30.1 nymphs/sample
Phytotoxicity (0-10) 6 DAA [6]: 0
Phytotoxicity (0-10) 13 DAA [6]: 0
Phytotoxicity (0-10) 20 DAA [6]: 0
Phytotoxicity (0-10) 28 DAA [6]: 0
Insect mortality, in words ([7]; infested plants sprayed, at 24 and 96 HAT): significant insect mortality
Insect Mortality, % 24 HAT ([7]; mealybugs on coleus shoots sprayed, light 14 h, 24 hours after treatment): 50%
Insect Mortality, % 96 HAT ([7]; mealybugs on coleus shoots sprayed, light 14 h, 96 hours after treatment): 68.8%

chlorin e6 [0.1% Ce6]
Phytotoxicity % 13 DAT2 [1]: 0%
Insects Suppression, % 6 DAT2 [2]: 27%
Insects Suppression, % 13 DAT2 [2]: 28%

O=C([O-])CN(CCN(CC(=O)[O-])CC(=O)O)CC(=O)O.[Na+].[Na+] [0.1% Na2EDTA, Na2EDTA]
Phytotoxicity % 13 DAT2 [1]: 0%
Insects Suppression %, 14 DAT, Light (12/12 h light-dark) ([8]; LED 250 μmol m^−2 s^−1, 12 h light/12 h dark): 33%
Insects Suppression %, 14 DAT, Dark ([8]; complete dark): 0%
Mean Insects Mortality, % 24 HAT ([4]; 24 HAT): 6%
Mean Insects Mortality, % 48 HAT ([4]; 48 HAT): 20%
Mean number of whitefly live nymphs/sample −1 DAA [5]: 93 nymphs/sample
Mean number of whitefly live nymphs/sample 6 DAA [5]: 53 nymphs/sample
Mean number of whitefly live nymphs/sample 13 DAA [5]: 69.7 nymphs/sample
Mean number of whitefly live nymphs/sample 20 DAA [5]: 89.9 nymphs/sample
Mean number of whitefly live nymphs/sample 28 DAA [5]: 44.3 nymphs/sample
Phytotoxicity (0-10) 6 DAA [6]: 0
Phytotoxicity (0-10) 13 DAA [6]: 0
Phytotoxicity (0-10) 20 DAA [6]: 0
Phytotoxicity (0-10) 28 DAA [6]: 0
Insects Suppression, % 6 DAT2 [2]: 36%
Insects Suppression, % 13 DAT2 [2]: 31%
